Reference: the NIST ThermoML archive (doi:10.1021/je800251v)
± gives the expanded uncertainty stated by the source.

Details: Liquid

SMILES: CCOC(=O)CC [ethyl propanoate]
- mass density (298.15 K, 100 kPa): 884.3 ± 0.8 kg/m3
- mass density (298.15 K, 1000 kPa): 884.8 ± 0.8 kg/m3
- mass density (298.15 K, 2000 kPa): 885.7 ± 0.9 kg/m3
- mass density (298.15 K, 3000 kPa): 886.6 ± 0.9 kg/m3
- mass density (298.15 K, 3340 kPa): 886.9 ± 0.9 kg/m3
- mass density (298.15 K, 5000 kPa): 888.7 ± 0.9 kg/m3
- mass density (298.15 K, 10000 kPa): 892.9 ± 1.1 kg/m3
- mass density (298.15 K, 15000 kPa): 896.9 ± 1.2 kg/m3
- mass density (298.15 K, 20000 kPa): 900.7 ± 1.3 kg/m3
- mass density (298.15 K, 25000 kPa): 904.4 ± 1.5 kg/m3
- mass density (298.15 K, 30000 kPa): 908.9 ± 1.5 kg/m3
- mass density (298.15 K, 35000 kPa): 913.6 ± 1.6 kg/m3
- mass density (303.15 K, 100 kPa): 878.5 ± 0.8 kg/m3
- mass density (303.15 K, 1000 kPa): 879 ± 0.8 kg/m3
- mass density (303.15 K, 2000 kPa): 880 ± 0.9 kg/m3
- mass density (303.15 K, 3000 kPa): 880.9 ± 0.9 kg/m3
- mass density (303.15 K, 3340 kPa): 881.2 ± 0.9 kg/m3
- mass density (303.15 K, 5000 kPa): 883 ± 1 kg/m3
- mass density (303.15 K, 10000 kPa): 887.4 ± 1.1 kg/m3
- mass density (303.15 K, 15000 kPa): 891.6 ± 1.3 kg/m3
- mass density (303.15 K, 20000 kPa): 895.6 ± 1.4 kg/m3
- mass density (303.15 K, 25000 kPa): 899.4 ± 1.5 kg/m3
- mass density (303.15 K, 30000 kPa): 904 ± 1.6 kg/m3
- mass density (303.15 K, 35000 kPa): 908.9 ± 1.7 kg/m3
- mass density (308.15 K, 100 kPa): 872.7 ± 0.8 kg/m3
- mass density (308.15 K, 1000 kPa): 873.2 ± 0.9 kg/m3
- mass density (308.15 K, 2000 kPa): 874.2 ± 0.9 kg/m3
- mass density (308.15 K, 3000 kPa): 875.2 ± 0.9 kg/m3
- mass density (308.15 K, 3340 kPa): 875.5 ± 0.9 kg/m3
- mass density (308.15 K, 5000 kPa): 877.4 ± 1 kg/m3
- mass density (308.15 K, 10000 kPa): 882 ± 1.1 kg/m3
- mass density (308.15 K, 15000 kPa): 886.3 ± 1.3 kg/m3
- mass density (308.15 K, 20000 kPa): 890.4 ± 1.4 kg/m3
- mass density (308.15 K, 25000 kPa): 894.3 ± 1.6 kg/m3
- mass density (308.15 K, 30000 kPa): 899.2 ± 1.7 kg/m3
- mass density (308.15 K, 35000 kPa): 904.2 ± 1.7 kg/m3
- mass density (313.15 K, 100 kPa): 866.8 ± 0.8 kg/m3
- mass density (313.15 K, 1000 kPa): 867.4 ± 0.9 kg/m3
- mass density (313.15 K, 2000 kPa): 868.4 ± 0.9 kg/m3
- mass density (313.15 K, 3000 kPa): 869.4 ± 0.9 kg/m3
- mass density (313.15 K, 3340 kPa): 869.8 ± 1 kg/m3
- mass density (313.15 K, 5000 kPa): 871.7 ± 1 kg/m3
- mass density (313.15 K, 10000 kPa): 876.5 ± 1.2 kg/m3
- mass density (313.15 K, 15000 kPa): 880.9 ± 1.3 kg/m3
- mass density (313.15 K, 20000 kPa): 885.1 ± 1.5 kg/m3
- mass density (313.15 K, 25000 kPa): 889.3 ± 1.6 kg/m3
- mass density (313.15 K, 30000 kPa): 894.4 ± 1.7 kg/m3
- mass density (313.15 K, 35000 kPa): 899.5 ± 1.8 kg/m3
- mass density (318.15 K, 100 kPa): 860.9 ± 0.9 kg/m3
- mass density (318.15 K, 1000 kPa): 861.5 ± 0.9 kg/m3
- mass density (318.15 K, 2000 kPa): 862.6 ± 0.9 kg/m3
- mass density (318.15 K, 3000 kPa): 863.7 ± 1 kg/m3
- mass density (318.15 K, 3340 kPa): 864.1 ± 1 kg/m3
- mass density (318.15 K, 5000 kPa): 866.1 ± 1 kg/m3
- mass density (318.15 K, 10000 kPa): 871 ± 1.2 kg/m3
- mass density (318.15 K, 15000 kPa): 875.6 ± 1.4 kg/m3
- mass density (318.15 K, 20000 kPa): 880 ± 1.5 kg/m3
- mass density (318.15 K, 25000 kPa): 884.1 ± 1.7 kg/m3
- mass density (318.15 K, 30000 kPa): 889.1 ± 1.8 kg/m3
- mass density (318.15 K, 35000 kPa): 894.3 ± 1.9 kg/m3
- mass density (323.15 K, 100 kPa): 854.9 ± 0.9 kg/m3
- mass density (323.15 K, 1000 kPa): 856 ± 0.9 kg/m3
- mass density (323.15 K, 2000 kPa): 857.1 ± 0.9 kg/m3
- mass density (323.15 K, 3000 kPa): 858.1 ± 1 kg/m3
- mass density (323.15 K, 3340 kPa): 858.4 ± 1 kg/m3
- mass density (323.15 K, 5000 kPa): 860.3 ± 1.1 kg/m3
- mass density (323.15 K, 10000 kPa): 865.4 ± 1.2 kg/m3
- mass density (323.15 K, 15000 kPa): 870.2 ± 1.4 kg/m3
- mass density (323.15 K, 20000 kPa): 874.7 ± 1.6 kg/m3
- mass density (323.15 K, 25000 kPa): 879.1 ± 1.7 kg/m3
- mass density (323.15 K, 30000 kPa): 884.3 ± 1.8 kg/m3
- mass density (323.15 K, 35000 kPa): 889.7 ± 1.9 kg/m3
- mass density (328.15 K, 100 kPa): 849.2 ± 0.9 kg/m3
- mass density (328.15 K, 1000 kPa): 850.2 ± 0.9 kg/m3
- mass density (328.15 K, 2000 kPa): 851.3 ± 1 kg/m3
- mass density (328.15 K, 3000 kPa): 852.5 ± 1 kg/m3
- mass density (328.15 K, 3340 kPa): 852.9 ± 1 kg/m3
- mass density (328.15 K, 5000 kPa): 854.7 ± 1.1 kg/m3
- mass density (328.15 K, 10000 kPa): 860 ± 1.3 kg/m3
- mass density (328.15 K, 15000 kPa): 865 ± 1.4 kg/m3
- mass density (328.15 K, 20000 kPa): 869.6 ± 1.6 kg/m3
- mass density (328.15 K, 25000 kPa): 874 ± 1.8 kg/m3
- mass density (328.15 K, 30000 kPa): 879.4 ± 1.9 kg/m3
- mass density (328.15 K, 35000 kPa): 884.9 ± 2 kg/m3
- mass density (333.15 K, 100 kPa): 843.1 ± 0.9 kg/m3
- mass density (333.15 K, 1000 kPa): 844.2 ± 0.9 kg/m3
- mass density (333.15 K, 2000 kPa): 845.4 ± 1 kg/m3
- mass density (333.15 K, 3000 kPa): 846.6 ± 1 kg/m3
- mass density (333.15 K, 3340 kPa): 847 ± 1 kg/m3
- mass density (333.15 K, 5000 kPa): 849 ± 1.1 kg/m3
- mass density (333.15 K, 10000 kPa): 854.6 ± 1.3 kg/m3
- mass density (333.15 K, 15000 kPa): 859.7 ± 1.5 kg/m3
- mass density (333.15 K, 20000 kPa): 864.5 ± 1.7 kg/m3
- mass density (333.15 K, 25000 kPa): 869.2 ± 1.8 kg/m3
- mass density (333.15 K, 30000 kPa): 874.8 ± 1.9 kg/m3
